Conditions: laboratory conditions; fully loaded with surfactant
From the text: Dimethylamine is a flammable gas and generally provided as an aqueous solution at concentrations of about 40%. As such, it is difficult to obtain highly concentrated salts of glyphosate using only DMA solution as starting material.
In contrast to IPA, DMA has a […] flash and boiling point and supplied as 40% solution.

CNC.O=C(O)CNCP(=O)(O)O [DMA glyphosate, dimethylamine salt of glyphosate]
maximum stable fully loaded concentration of glyphosate: 560 gae/L

Source: patent publication US8530385B2, “Herbicidal formulations for combinations of dimethylamine and potassium salts of glyphosate” (Donaghys Industries Limited, priority 2007, dated 2013)
